According to publication PMC8921065, “Combination of terbium-161 with somatostatin receptor antagonists—a potential paradigm shift for the treatment of neuroendocrine neoplasms” (European Journal of Nuclear Medicine and Molecular Imaging, 2021):

Experiment: in vivo
Settings: mouse, iv, 0.2 nmol/mouse, total radioactivity

Measured: tissue uptake at 24 h

C[C@@H](O)[C@@H]1NC(=O)[C@H](CCCCN)NC(=O)[C@@H](Cc2ccc(NC(N)=O)cc2)NC(=O)[C@H](Cc2ccc(O)cc2)NC(=O)[C@H](NC(=O)[C@H](Cc2ccc(Cl)cc2)NC(=O)CN2CCN(CC(=O)O)CCN(CC(=O)O)CCN(CC(=O)O)CC2)CSSC[C@@H](C(=O)N[C@H](Cc2ccc(O)cc2)C(N)=O)NC1=O [metal not drawn]
≤ 0.1 %ID/g: blood | heart | muscle
